A word on the IC50: it is the concentration that inhibits the measured activity by half. A low value points to greater potency in that assay.

SMILES strings stand for the structures. Active and inactive are the calls of the source. The calls are words filed in the database; no cut-off is given here.

The values that follow come from ChEMBL document CHEMBL1154550, “Isolation of psammaplin A 11'-sulfate and bisaprasin 11'-sulfate from the marine sponge Aplysinella rhax” (J Nat Prod, 2000).

The target in assay [1] is T1, Adenosine receptor A1 (Rattus norvegicus, UniProt P25099).
T1 sequence (P25099 whole entry): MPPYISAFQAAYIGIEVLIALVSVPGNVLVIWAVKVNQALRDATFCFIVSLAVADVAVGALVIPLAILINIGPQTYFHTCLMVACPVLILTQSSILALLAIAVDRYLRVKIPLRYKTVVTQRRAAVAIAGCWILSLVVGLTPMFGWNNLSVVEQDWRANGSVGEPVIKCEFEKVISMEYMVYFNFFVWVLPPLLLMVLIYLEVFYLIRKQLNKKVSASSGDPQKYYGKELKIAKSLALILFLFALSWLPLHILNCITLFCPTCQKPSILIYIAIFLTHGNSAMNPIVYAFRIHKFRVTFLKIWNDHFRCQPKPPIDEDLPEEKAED
As to the kind of experiment: Displacement of […] from adenosine A1 receptor in rat brain. In kind it is tissue-based.

For assay [2], the target named is T2, Adenosine receptor A1 (Rattus norvegicus) (UniProt P25099).
T2 sequence (whole entry): T1 sequence (P25099 whole entry)
As to the kind of experiment: Displacement of […] from adenosine A1 receptor in rat brain up to 2.2 mM. In kind it is tissue-based. (In a radioligand displacement assay an active substance lowers the binding of a labelled ligand.)

`O=C(NCCSSCCNC(=O)/C(Cc1ccc(O)c(Br)c1)=N/O)/C(Cc1ccc(O)c(Br)c1)=N/O` [PSAMMAPLIN A] yielded an IC50 in assay [1] of 20 µM. With `O=C(NCCSSCCNC(=O)/C(Cc1cc(Br)c(O)c(-c2cc(C/C(=N\O)C(=O)NCCSSCCNC(=O)/C(Cc3ccc(OS(=O)(=O)O)c(Br)c3)=N/O)cc(Br)c2O)c1)=N/O)/C(Cc1ccc(O)c(Br)c1)=N/O`, the outcome in assay [2] was inactive. For `O=C(NCCSSCCNC(=O)/C(Cc1ccc(OS(=O)(=O)O)c(Br)c1)=N/O)/C(Cc1ccc(O)c(Br)c1)=N/O`, the half-inhibitory concentration (IC50) in assay [1] amounted to 90 µM. That is a double-digit micromolar value.
